Results on two molecules are retold here after patent US20080014614A1, “Labeling of rapamycin using rapamycin-specific methylases” (Wyeth, priority 2004, published 2008).

The subject of this test is RapM methylase. The experiment in a line: In vitro methylation of desmethyl-rapamycin substrates by recombinant RapM methylase crude extract, HPLC analysis. The test is classed as biochemical, Streptomyces hygroscopicus. Particulars: recombinant E. coli cell extract, SAM as methyl donor, phosphate buffer pH 7.5, HPLC chromatograms.

Experimental: The RapI, RapM and RapQ proteins were then expressed in E. coli strain BL21(DE3) cells using the Novagen pET24 inducible plasmid expression vector. In this vector, cloned genes are expressed from a T7 promoter by T7 RNA polymerase, and expression is activated by IPTG addition.
For crude extracts of the cloned methylase proteins, 25 mL cultures of induced cells were collected by centrifugation and the pellets frozen. The pellets were resuspended in 10 mL 50 mM potassium phosphate buffer, pH 7.5, containing 1 mM β-mercaptoethanol. Thereafter, lysozyme was added to a final concentration of 100 μg/ml and Benzonase™ nuclease was added (1 μL/mL cells). Cells were sonicated for 1 to 2 min on ice and cell debris was removed by centrifugation at ˜30,000×g, 4° C. for 15 min. Supernatants were adjusted to ˜10% glycerol prior to freezing at −70° C.
Approximately 65 μL of crude methylase extract was added to a reaction containing 3 μL of 1 mg/mL 7-desmethyl- rapamycin (7-dmr) solution, 5 μL of 4 mM SAM, 4 μL of 0.1 M MgSO4, and 23 μL of a 0.5 M phosphate buffer, adjusted to pH 7.5. Methylation reactions using the recombinant cell extracts were carried out as described above, except that 50 μL of extract and 38 μL of buffer were used.

For the molecule `CO[C@@H]1C[C@H](C[C@@H](C)[C@@H]2CC(=O)[C@H](C)/C=C(\C)[C@@H](O)[C@@H](OC)C(=O)[C@H](C)C[C@H](C)\C=C/C=C/C=C(\C)[C@@H](O)C[C@@H]3CC[C@@H](C)[C@@](O)(O3)C(=O)C(=O)N3CCCC[C@H]3C(=O)O2)CC[C@H]1O` [7-dmr, 7-O-desmethyl-rapamycin], the “Conversion of the desmethyl-rapamycin substrate to rapamycin by RapM methylase (substrate specificity)” value is given as “generated rapamycin”.
As for 32-O-desmethyl-rapamycin [32-dmr], the “Conversion of the desmethyl-rapamycin substrate to rapamycin by RapM methylase (substrate specificity)” value was “did not modify”.
